Results as given in patent publication US8216592B2, “Infection model for developing chemotherapeutic agents” (priority 2007, dated 2012).

Tests used:
control strain MG1655 = experiment: C. elegans infection system: control strain bacteria recovered from the nematode gut after treatment; type: in vivo, E. coli; settings: MG1655-fed C. elegans; 100 μg/mL gentamicin, 50 μg/mL kanamycin, 7 μg/mL heparin or 0.01% mannose in M9 buffer, 24 hours at 26° C.; P<0.001 for all compounds tested; FIG. 4
Procedure: (§1) Nematodes were infected with prototypical ETEC H10407 or control MG1655 strains on NGM agar. After 24 hours of infection, 30 nematodes were harvested and placed in 1 mL M9 buffer (black bars), or M9 buffer supplemented with 100 μg/mL gentamicin (white bars), 50 μg/mL kanamycin (cross-hatched bars), 7 μg/mL heparin (checkered bars), or 0.01% mannose (speckled bars), and incubated at 26° C. for 24 hours. Values represent the means of three replicate assays, and error bars indicate 1 SD.
In one embodiment, a C. elegans/ETEC infection system can be used to screen for chemotherapeutic agents able to disrupt colonization of the nematode gut. In another embodiment, a C. elegans/ETEC infection system may be used to test a range of compounds including, for purposes of example only, the bacteriocidal antibiotic gentamicin, bacteriostatic antibiotic kanamycin, heparin, which may disrupt bacterial adherence, and mannose, which inhibits type I fimbria-mediated adherence to host cells. Age-synchronized L4 nematodes were placed on NGM agar inoculated with either strain H10407 or the control MG1655. Twenty-four hours post-infection, 30 nematodes fed each strain were placed in M9 buffer or M9 buffer supplemented with the desired compounds. After an additional 24 hours of incubation at 26° C., nematodes were harvested, washed to remove exterior bacteria, pulverized and plated on selective LB agar. […]

[1] = test system: enteropathogenic E. coli (EPEC) strain E2348/69; experiment: C. elegans infection system: EPEC bacteria recoverable from the nematode gut after treatment; type: in vivo; settings: EPEC E2348/69-infected C. elegans; gentamicin; data not shown
Description: With continued reference to FIG. 4, there was no significant difference in the number of recoverable ETEC bacteria after treatment with any of the other compounds tested. […] The present invention therefore also includes a C. elegans small animal infection model for studying EPEC. Accordingly, a C. elegans infection system could be used to screen for potentially therapeutic chemical agents against multiple E. coli pathotypes.

ETEC strain H10407 = experiment: C. elegans/ETEC infection system: screen of chemotherapeutic agents against colonization of the nematode gut; type: in vivo, E. coli; settings: ETEC H10407-infected C. elegans, 24 hours at 26° C.
Procedure: as §1
In one embodiment, a C. elegans/ETEC infection system can be used to screen for chemotherapeutic agents able to disrupt colonization of the nematode gut. In another embodiment, a C. elegans/ETEC infection system may be used to test a range of compounds including, for purposes of example only, the bacteriocidal antibiotic gentamicin, bacteriostatic antibiotic kanamycin, heparin, which may disrupt bacterial adherence, and mannose, which inhibits type I fimbria-mediated adherence to host cells. Age-synchronized L4 nematodes were placed on NGM agar inoculated with either strain H10407 or the control MG1655. Twenty-four hours post-infection, 30 nematodes fed each strain were placed in M9 buffer or M9 buffer supplemented with the desired compounds. After an additional 24 hours of incubation at 26° C., nematodes were harvested, washed to remove exterior bacteria, pulverized and plated on selective LB agar.
After 3 days at 26° C., L4 nematodes were removed from feeding using a platinum wire and placed on rifampin-containing NGM agar plates with pre-grown ETEC and control strains that were incubated at 37° C. overnight. Prior to seeding of C. elegans, NGM and CFA agar plates were shifted to 26° C., the temperature where they remained for the duration of the assay. For the standard plate count assay, nematodes were fed on ETEC and control strains for 24 hours. […]

Substance	reduction in the number of bacteria recovered from the nematode gut, significance (control strain MG1655)	reduction in the number of EPEC bacteria recoverable from the nematode gut compared to untreated EPEC-infected nematodes [1]	reduction in the number of ETEC bacteria recoverable from the nematode gut (vs M9 buffer), significance (ETEC strain H10407; 100 μg/mL gentamicin, 50 μg/mL kanamycin, 7 μg/mL heparin or 0.01% mannose in M9 buffer, FIG. 4)	size of the reduction in recoverable ETEC bacteria, M9 buffer versus M9 buffer supplemented with gentamicin (ETEC strain H10407; 100 μg/mL gentamicin)	mean number of bacteria recoverable from the nematode gut after incubation (ETEC strain H10407; M9 buffer supplemented with 100 μg/mL gentamicin, FIG. 4)
heparin	significant reduction	–	–	–	–
gentamicin	significant reduction	approximately one order of magnitude	significant (P=0.004) reduction	approximately one order of magnitude	1×10^4 CFU per nematode
